Source: patent US12594243B2, “Pharmaceutical formulations” (THERACOSBIO, LLC, priority 2020, dated 2026)

Tests used:
[1] = human, in vivo
From the text: In a drug-drug interaction clinical pharmacology study the effects of the GLP-1 receptor agonist exenatide on the pharmacokinetics of bexagliflozin were studied in a randomized crossover study. It is known that GLP-1 receptor agonists retard gastric emptying and because the bexagliflozin dosage form has a gastroretentive mechanism, the possibility that the retardation would adversely affect bexagliflozin delivery was considered important to address (see e.g., Guideline on the pharmacokinetic and clinical evaluation of modified release dosage forms (EMA/CPMP/EWP/280/96 Corr1) section 5.1.4.2.). In the study, participants were assigned to either receive bexagliflozin alone first, or combined treatment with bexagliflozin and exenatide first. Each group received both treatments alternately, in a crossover fashion (two-period, two-treatment crossover design), with the two treatment periods separated by a 7-day washout period. […] Although the endpoints of the confidence intervals fell outside of the range 80-125%, indicating an interaction leading to a change in exposure when bexagliflozin was administered following exenatide, the effect of exenatide on bexagliflozin pharmacokinetics was not so large as to jeopardize patient safety or to provoke a recommendation for a change in prescribing pattern. […] Absorption was delayed when bexagliflozin was administered 30 minutes after exenatide injection, with a median Tmax of 5.00 hours post-dose compared to 2.00 hours post-dose following administration of bexagliflozin alone.

[2] = target: P-gp (Homo sapiens, UniProt P08183); assay: P-gp substrate observation; type: in vitro ADME
P-gp, sequence (P08183 whole entry): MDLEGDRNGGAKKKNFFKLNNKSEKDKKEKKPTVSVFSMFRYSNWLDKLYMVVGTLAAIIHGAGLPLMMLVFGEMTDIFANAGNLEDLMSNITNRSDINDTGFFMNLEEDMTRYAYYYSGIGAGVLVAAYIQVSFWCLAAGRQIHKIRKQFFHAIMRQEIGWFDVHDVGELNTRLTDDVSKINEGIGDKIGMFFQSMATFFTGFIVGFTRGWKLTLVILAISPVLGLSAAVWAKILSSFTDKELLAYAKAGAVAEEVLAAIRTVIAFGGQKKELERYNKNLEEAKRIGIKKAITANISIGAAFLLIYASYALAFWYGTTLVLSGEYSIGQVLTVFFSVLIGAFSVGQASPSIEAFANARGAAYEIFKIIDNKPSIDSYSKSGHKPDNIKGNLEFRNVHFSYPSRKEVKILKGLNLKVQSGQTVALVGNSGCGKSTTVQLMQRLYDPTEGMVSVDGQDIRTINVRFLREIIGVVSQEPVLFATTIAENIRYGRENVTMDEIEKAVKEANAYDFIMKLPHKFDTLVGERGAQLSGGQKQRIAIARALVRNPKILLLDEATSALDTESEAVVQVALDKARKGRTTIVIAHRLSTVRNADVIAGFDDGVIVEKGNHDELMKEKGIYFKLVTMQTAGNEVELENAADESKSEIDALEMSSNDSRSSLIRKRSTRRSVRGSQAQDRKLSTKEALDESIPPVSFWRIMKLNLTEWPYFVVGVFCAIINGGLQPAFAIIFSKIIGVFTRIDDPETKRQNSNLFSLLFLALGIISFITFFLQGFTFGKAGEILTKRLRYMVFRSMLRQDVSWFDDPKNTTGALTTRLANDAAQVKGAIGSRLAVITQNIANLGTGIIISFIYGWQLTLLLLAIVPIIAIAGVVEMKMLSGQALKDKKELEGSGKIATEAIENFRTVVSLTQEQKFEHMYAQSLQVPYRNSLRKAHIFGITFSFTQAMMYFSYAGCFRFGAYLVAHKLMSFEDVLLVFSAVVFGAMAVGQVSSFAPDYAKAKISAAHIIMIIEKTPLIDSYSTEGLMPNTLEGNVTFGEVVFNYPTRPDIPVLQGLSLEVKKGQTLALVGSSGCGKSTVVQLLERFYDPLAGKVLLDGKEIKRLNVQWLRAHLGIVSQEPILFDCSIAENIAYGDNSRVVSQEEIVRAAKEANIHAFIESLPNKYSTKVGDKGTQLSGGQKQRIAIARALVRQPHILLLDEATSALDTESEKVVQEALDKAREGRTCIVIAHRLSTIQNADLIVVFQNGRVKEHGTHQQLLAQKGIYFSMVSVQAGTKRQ
From the text: Because P-gp expression increases with distance along the small intestine, absorption is likely greater in the duodenum than the ileum, and quantitative mass balance studies using [^14C]-bexagliflozin have shown that colonic absorption is minimal (Zhang et al. Xenobiotica. 2019 Aug. 27:1-11. doi: 10.1080/00498254.2019.1654634). Because of the potential practical incompatibility of using an extended release tablet while aiming for most drug release to occur high in the small intestine, tablets of the invention advantageously include an adaptation that can help to retain them in the stomach. A large part of the extended release of bexagliflozin can thus occur in the stomach, permitting absorption of the drug to occur at the desired location in the small intestine, thereby providing an advantageous pharmacokinetic profile.

[3] = quantitative mass balance studies using [^14C]-bexagliflozin; cited from earlier work

OC[C@H]1O[C@@H](c2ccc(Cl)c(Cc3ccc(OCCOC4CC4)cc3)c2)[C@H](O)[C@@H](O)[C@@H]1O [bexagliflozin, (2S,3R,4R,5S,6R)-2-(4-chloro-3-(4-(2-cyclopropoxyethoxy)benzyl)phenyl)-6-(hydroxymethyl)tetrahydro-2H-pyran-3,4,5-triol]
intra-subject variability for AUC0-t and AUC0-∞ [1]: < 22%
intra-subject variability for Cmax [1]: approximately 32%
ratio of geometric least square means for AUC0-t, with exenatide to alone [1]: 147.50%
ratio of geometric least square means for AUC0-∞, with exenatide to alone [1]: 137.56%
ratio of geometric least square means for Cmax, with exenatide to alone [1]: 125.27%
increase of AUC0-t compared to bexagliflozin alone ([1]; sc): approximately 48%
increase of AUC0-∞ compared to bexagliflozin alone ([1]; sc): ~38%
increase of Cmax compared to bexagliflozin alone ([1]; sc): ~25%
P-gp substrate status [2]: P-gp substrate
colonic absorption [3]: minimal
